For 41 compounds, EC50 results are on record in patent US9120770B2, “Substituted pyridine and pyrazine compounds as PDE4 inhibitors” (DART NEUROSCIENCE (CAYMAN) LTD., priority 2013, dated 2015).

The target of this experiment is PDE4D3 (Homo sapiens, UniProt Q08499).
Chain of PDE4D3 (Q08499 1-673 isoform Q08499-2): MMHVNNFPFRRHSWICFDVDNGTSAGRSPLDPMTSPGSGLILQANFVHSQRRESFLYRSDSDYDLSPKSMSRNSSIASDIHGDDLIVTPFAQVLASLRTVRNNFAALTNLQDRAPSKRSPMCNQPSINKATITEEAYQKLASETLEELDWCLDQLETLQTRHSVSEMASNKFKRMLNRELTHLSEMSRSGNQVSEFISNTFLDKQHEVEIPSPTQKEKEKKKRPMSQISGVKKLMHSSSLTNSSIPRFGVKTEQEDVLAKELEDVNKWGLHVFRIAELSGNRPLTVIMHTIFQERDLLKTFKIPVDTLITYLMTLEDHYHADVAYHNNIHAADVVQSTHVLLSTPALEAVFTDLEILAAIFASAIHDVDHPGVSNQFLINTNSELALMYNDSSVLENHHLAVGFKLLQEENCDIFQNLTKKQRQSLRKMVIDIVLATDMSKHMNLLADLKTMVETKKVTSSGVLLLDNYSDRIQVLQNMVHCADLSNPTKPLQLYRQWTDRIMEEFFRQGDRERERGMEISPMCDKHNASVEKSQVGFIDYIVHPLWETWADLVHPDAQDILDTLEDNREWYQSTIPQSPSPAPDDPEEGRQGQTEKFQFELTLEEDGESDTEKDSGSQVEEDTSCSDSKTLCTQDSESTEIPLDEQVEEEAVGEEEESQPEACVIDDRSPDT

In the case of `CCCOc1ccc(Cc2cnc(OC(F)F)c(-c3cccc(Cl)c3)c2)cn1` [Example 51, 3-(3-Chlorophenyl)-2-(difluoromethoxy)-5-[(6-propoxypyridin-3-yl)methyl]pyridine], the EC50 was 100 to 1000 nM. Turning to `OCc1cn(Cc2cnc(OC(F)F)c(-c3cccc(Cl)c3)c2)cn1` [Example 274, (1-{[5-(3-Chlorophenyl)-6-(difluoromethoxy)pyridin-3-yl]methyl}-1H-imidazol-4-yl)methanol], the concentration for a half-maximal effect (EC50) is less than 100 nM.

The compound `COc1ncc(Cn2ccc(N)n2)cc1-c1cccc(OC(F)F)c1` [Example 232, 1-({5-[3-(Difluoromethoxy)phenyl]-6-methoxypyridin-3-yl}methyl)-1H-pyrazol-3-amine] registered an EC50 of less than 100 nM. As to `CCOc1ncc(Cc2cnc(C#N)nc2)nc1-c1cccc(OC(F)F)c1` [Example 1, 5-({6-[3-(Difluoromethoxy)phenyl]-5-ethoxypyrazin-2-yl}methyl)pyrimidine-2-carbonitrile], the EC50 is less than 100 nM. `COc1ncc(Cn2cnc(CO)n2)nc1-c1cccc(OC(F)F)c1` [Example 211, [1-({6-[3-(Difluoromethoxy)phenyl]-5-methoxypyrazin-2-yl}-methyl)-1H-1,2,4-triazol-3-yl]methanol] gave an EC50 of 100 to 1000 nM. Consider `COCc1ncn(Cc2cnc(OC(F)F)c(-c3cccc(Cl)c3)c2)n1` [Example 157, 3-(3-Chlorophenyl)-2-(difluoromethoxy)-5-{[3-(methoxymethyl)-1H-1,2,4-triazol-1-yl]methyl}pyridine], for which the EC50 was in the range of 100 to 1000 nM. `CCOc1ncc(Cn2cnc(C(F)(F)F)n2)cc1-c1cccc(Cl)c1` [Example 152, 3-(3-Chlorophenyl)-2-ethoxy-5-{[3-(trifluoromethyl)-1H-1,2,4-triazol-1-yl]methyl}pyridine] yielded an EC50 of 100 to 1000 nM. `CCOc1ncc(Cn2cnc(CO)n2)cc1-c1cccc(OC(F)F)c1` [Example 201, [1-({5-[3-(Difluoromethoxy)phenyl]-6-ethoxypyridin-3-yl}methyl)-1H-1,2,4-triazol-3-yl]methanol] gave an EC50 of less than 100 nM.

Turning to `COC(=O)c1ncn(Cc2cnc(OC)c(-c3cccc(Cl)c3)c2)n1` [Example 141, Methyl 1-{[5-(3-chlorophenyl)-6-methoxypyridin-3-yl]methyl}-1H-1,2,4-triazole-3-carboxylate], the EC50 was in the range of 100 to 1000 nM.

Regarding `N#Cc1ncc(Cc2cnc(OC(F)F)c(-c3cccc(Cl)c3)c2)cn1` [Example 35, 5-{[5-(3-Chlorophenyl)-6-(difluoromethoxy)pyridin-3-yl]methyl}pyrimidine-2-carbonitrile], the EC50 is 1000 to 10000 nM.

`CCOc1ncc(Cc2cnc(C(N)=O)nc2)nc1-c1cccc(OC(F)F)c1` [Example 13, 5-({6-[3-(Difluoromethoxy)phenyl]-5-ethoxypyrazin-2-yl}methyl)pyrimidine-2-carboxamide]: the EC50 was less than 100 nM. `COc1ncc(Cc2cncnc2)cc1-c1cccc(Cl)c1` [Example 78, 5-{[5-(3-Chlorophenyl)-6-methoxypyridin-3-yl]methyl}pyrimidine] yielded an EC50 of less than 100 nM.

As for `FC(F)Oc1ncc(Cc2cnoc2)cc1-c1cccc(Cl)c1` [Example 97, 3-(3-Chlorophenyl)-2-(difluoromethoxy)-5-(1,2-oxazol-4-ylmethyl)pyridine], the EC50 was 100 to 1000 nM.

For `NC(=O)c1cn(Cc2cnc(OC(F)F)c(-c3cccc(Cl)c3)c2)cn1` [Example 198, 1-{[5-(3-Chlorophenyl)-6-(difluoromethoxy)pyridin-3-yl]methyl}-1H-imidazole-4-carboxamide], the concentration for a half-maximal effect (EC50) is 1000 to 10000 nM. `NC(=O)c1ncc(Cc2cnc(OC(F)F)c(-c3cccc(Cl)c3)c2)cn1` [Example 117, 5-{[5-(3-Chlorophenyl)-6-(difluoromethoxy)pyridin-3-yl]methyl}pyrimidine-2-carboxamide] returned an EC50 of 100 to 1000 nM.

Turning to `COc1cccc(-c2cc(Cn3cnc(N)n3)cnc2OC)c1` [Example 221, 1-{[6-Methoxy-5-(3-methoxyphenyl)pyridin-3-yl]methyl}-1H-1,2,4-triazol-3-amine], the EC50 was in the range of 100 to 1000 nM. Consider `COc1ncc(Cn2ccccc2=O)cc1-c1cccc(Cl)c1` [Example 177, 1-{[5-(3-Chlorophenyl)-6-methoxypyridin-3-yl]methyl}-1,2-dihydropyridin-2-one], for which the EC50 fell in the range of 1000 to 10000 nM. As for `FC(F)Oc1ncc(Cc2cn[nH]c2)cc1-c1cccc(Cl)c1` [Example 28, 5-((1H-Pyrazol-4-yl)methyl)-3-(3-chlorophenyl)-2-(difluoromethoxy)pyridine], the figure is less than 100 nM; as for `COC(=O)Cc1ccc(Cc2cnc(OC(F)F)c(-c3cccc(Cl)c3)c2)cc1` [Example 100, Methyl 2-(4-{[5-(3-chlorophenyl)-6-(difluoromethoxy)pyridin-3-yl]methyl}phenyl)acetate], less than 100 nM. `COc1ncc(Cn2ccnc2)cc1-c1cccc(Cl)c1` [Example 173, 3-(3-Chlorophenyl)-5-(1H-imidazol-1-ylmethyl)-2-methoxypyridine] showed a 50% effective concentration (EC50) of less than 100 nM. The figure for `NC(=O)c1ccc(Cc2cnc(OC(F)F)c(-c3cccc(Cl)c3)c2)cn1` [Example 114, 5-{[5-(3-Chlorophenyl)-6-(difluoromethoxy)pyridin-3-yl]methyl}pyridine-2-carboxamide] is 100 to 1000 nM; for `COc1ncc(Cn2cnnc2C)cc1-c1cccc(Cl)c1` [Example 138, 3-(3-Chlorophenyl)-2-methoxy-5-[(3-methyl-4H-1,2,4-triazol-4-yl)methyl]pyridine] it is 1000 to 10000 nM; for `COc1ncc(Cc2cnc(C(N)=O)nc2)cc1-c1cccc(OC(F)F)c1` [Example 121, 5-({5-[3-(Difluoromethoxy)phenyl]-6-methoxypyridin-3-yl}methyl)pyrimidine-2-carboxamide] it is 100 to 1000 nM. The figure for `COc1ncc(Cn2cccn2)cc1-c1cccc(Cl)c1` [Example 145, 3-(3-Chlorophenyl)-2-methoxy-5-(1H-pyrazol-1-ylmethyl)pyridine] is less than 100 nM. Turning to `COc1ncc(Cn2cnc(N)n2)cc1-c1cccc(F)c1` [Example 220, 1-{[5-(3-Fluorophenyl)-6-methoxypyridin-3-yl]methyl}-1H-1,2,4-triazol-3-amine], the EC50 was 100 to 1000 nM. Compound `CNC(c1ccc(F)cc1)c1cnc(OC)c(-c2cccc(Cl)c2)c1` (centres unmarked) [Example 17, {[5-(3-Chlorophenyl)-6-methoxypyridin-3-yl](4-fluorophenyl)methyl}(methyl)amine] came in with an EC50 of 1000 to 10000 nM. The figure for `COc1cccc(-c2cc(Cn3cncn3)cnc2OC(F)F)c1` [Example 175, 2-(Difluoromethoxy)-3-(3-methoxyphenyl)-5-(1H-1,2,4-triazol-1-ylmethyl)pyridine] is more than 10000 nM. As for `COc1ncc(Cc2cnc(NCCN(C)C)nc2)cc1-c1cccc(Cl)c1` [Example 3, {2-[(5-{[5-(3-Chlorophenyl)-6-methoxypyridin-3-yl]methyl}pyrimidin-2-yl)amino]ethyl}dimethylamine], the figure is 1000 to 10000 nM.

`COc1ncc(Cn2cnc(CO)n2)cc1-c1cccc(OC(F)F)c1` [Example 202, [1-({5-[3-(Difluoromethoxy)phenyl]-6-methoxypyridin-3-yl}methyl)-1H-1,2,4-triazol-3-yl]methanol] displayed an EC50 of less than 100 nM.

`COc1ncc(Cn2cnc(C(N)=O)n2)cc1-c1cccc(Cl)c1` [Example 241, 1-{[5-(3-Chlorophenyl)-6-methoxypyridin-3-yl]methyl}-1H-1,2,4-triazole-3-carboxamide] registered an EC50 of 1000 to 10000 nM. `COc1ncc(Cc2ccc(C(F)(F)F)nc2)cc1-c1cccc(Cl)c1` [Example 49, 3-(3-Chlorophenyl)-2-methoxy-{[6-(trifluoromethyl)pyridin-3-yl]methyl}pyridine] registered an EC50 of 100 to 1000 nM. The figure for `CCOc1ncc(Cn2cc(CO)nn2)cc1-c1cccc(OC(F)F)c1` [Example 263, [1-({5-[3-(Difluoromethoxy)phenyl]-6-ethoxypyridin-3-yl}methyl)-1H-1,2,3-triazol-4-yl]methanol] is less than 100 nM. As for `COc1ncc(C(O)c2ccc(F)cc2)cc1-c1cccc(Cl)c1` (centres unmarked) [Example 14, [5-(3-Chlorophenyl)-6-methoxypyridin-3-yl](4-fluorophenyl)methanol], the figure is 100 to 1000 nM; as for `CCOc1ncc(Cn2cnc(C(F)F)n2)cc1-c1cccc(OC(F)F)c1` [Example 260, 3-[3-(Difluoromethoxy)phenyl]-5-{[3-(difluoromethyl)-1H-1,2,4-triazol-1-yl]methyl}-2-ethoxypyridine], less than 100 nM. As for `COc1ncc(Cc2cnc(NC3CC3)nc2)nc1-c1cccc(Cl)c1` [Example 57, 5-{[6-(3-Chlorophenyl)-5-methoxypyrazin-2-yl]methyl}-N-cyclopropylpyrimidin-2-amine], the figure is 100 to 1000 nM; as for `COc1ncc(Cn2cnc(N)n2)cc1-c1cccc(C)c1` [Example 222, 1-{[6-Methoxy-5-(3-methylphenyl)pyridin-3-yl]methyl}-1H-1,2,4-triazol-3-amine], 100 to 1000 nM; as for `COC(=O)c1ncnn1Cc1cnc(OC)c(-c2cccc(Cl)c2)n1` [Example 195, Methyl 1-{[6-(3-chlorophenyl)-5-methoxypyrazin-2-yl]methyl}-1H-1,2,4-triazole-5-carboxylate], 1000 to 10000 nM. `FC(F)Oc1ncc(Cc2nccs2)cc1-c1cccc(Cl)c1` [Example 74, 3-(3-Chlorophenyl)-2-(difluoromethoxy)-5-(1,3-thiazol-2-ylmethyl)pyridine] showed an EC50 of 100 to 1000 nM. Regarding `COc1ncc(Cn2nccc2N)cc1-c1cccc(OC(F)F)c1` [Example 233, 1-({5-[3-(Difluoromethoxy)phenyl]-6-methoxypyridin-3-yl}methyl)-1H-pyrazol-5-amine], the EC50 was 100 to 1000 nM. The figure for `COc1ncc(Cn2cnc(CF)n2)cc1-c1ccnc(OC(F)F)c1` [Example 256, 3-[2-(Difluoromethoxy)pyridin-4-yl]-5-{[3-(fluoromethyl)-1H-1,2,4-triazol-1-yl]methyl}-2-methoxypyridine] is less than 100 nM; for `COc1ncc(Cc2cnc(Cl)nc2)cc1-c1cccc(Cl)c1` [Example 2, 2-Chloro-5-{[5-(3-chlorophenyl)-6-methoxypyridin-3-yl]methyl}pyrimidine] it is 100 to 1000 nM.

The term EC50 denotes the concentration needed to bring the measured effect to its halfway point. Lower therefore signals an effect from little substance.
